Test results as given in patent publication US8399430B2, “Alkylated semi synthetic glycosaminoglycosan ethers, and methods for making and using thereof” (University of Utah Research Foundation, priority 2008, dated 2013).

Experiments:
[1] = target: T1, Hageman factor (Factor XII) (Homo sapiens, UniProt P00748); test: Activation of Hageman factor (Factor XII) in pooled human plasma, amidolytic activity; details: Table 2, table line reads IC50 values
T1 sequence (P00748 20-615): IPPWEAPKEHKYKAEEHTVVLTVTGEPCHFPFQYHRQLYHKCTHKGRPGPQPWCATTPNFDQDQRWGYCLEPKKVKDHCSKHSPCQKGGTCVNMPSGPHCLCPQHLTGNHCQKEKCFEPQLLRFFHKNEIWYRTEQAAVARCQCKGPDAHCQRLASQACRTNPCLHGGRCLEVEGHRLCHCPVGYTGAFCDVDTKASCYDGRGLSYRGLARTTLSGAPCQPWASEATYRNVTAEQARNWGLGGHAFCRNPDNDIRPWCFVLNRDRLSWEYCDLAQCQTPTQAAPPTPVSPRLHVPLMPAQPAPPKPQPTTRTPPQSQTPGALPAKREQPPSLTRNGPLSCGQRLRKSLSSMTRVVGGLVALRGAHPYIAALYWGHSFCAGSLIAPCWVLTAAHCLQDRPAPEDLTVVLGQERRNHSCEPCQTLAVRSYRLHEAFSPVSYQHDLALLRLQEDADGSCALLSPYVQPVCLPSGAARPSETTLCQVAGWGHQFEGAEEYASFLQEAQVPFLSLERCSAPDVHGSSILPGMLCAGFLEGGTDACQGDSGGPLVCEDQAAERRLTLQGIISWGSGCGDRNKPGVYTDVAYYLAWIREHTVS
Description: Enzymatic assays. […] Pooled human plasma (5 μl) was incubated with 100 μl of SAHA (0.1 to 1000 μg/ml) in 0.05 M HEPES containing Triton X-100 for 5 min at 5° C.
SAGEs were screened for their ability to stimulate intrinsic coagulation (activation of Hageman factor). Pooled human plasma was incubated with heparin or low molecular weight (Lmw) sulfated and fluoroalkylated HAs (Lmw-OSFHA-1, Lmw-OSFHA-2) and amidolytic activity was determined using the substrate D-cyclohydrotyrosyl-Gly-Arg-p-NA.

RAGE/HMGB1 = target: T2, RAGE/HMGB1 (Homo sapiens, UniProt Q15109); test: Solid phase binding assay, RAGE to HMGB-1 (amphoterin); details: Table 2
T2 construct: purchased R&D Systems (Minneapolis, Minn.)
Description: (§1) Solid phase binding assays. Solid phase binding assays were used to study the ability of SAGEs to inhibit RAGE binding to its ligands. For studies of the effect of SAGEs on RAGE binding to its ligands, polyvinyl 96-well plates were coated with 5 μg/well of specific ligand (CML-BSA, HMGB-I or S100b calgranulin). Plates were incubated overnight at 4° C. and washed thrice with PBS-0.05% Tween-20 (PBST). Separately, RAGE-Fc chimera (100 μL containing 0.5 μg/ml in PBST-0.1% BSA) was incubated with an equal volume of serially diluted SAGEs (0.001 to 1,000 μg/ml in PBST-BSA) overnight at 4° C. The following day, 50 μL of RAGE-SAGE mix was transferred to each respective ligand-coated well and incubated at 37° C. for 2 h. Wells were then washed four times with PBST. To detect bound RAGE, 50 μL of anti-RAGE antibody (0.5 μg/ml) was added to each well, the mixture was incubated for 1 h at room temperature, and wells were washed again four times with PBST. Horse-radish peroxidase conjugated secondary antibody (1:10,000 antibody dilution in PBST; 50 μL per well) was added, wells were incubated for 1 h at room temperature, and then washed once with PBST. A colorimetric reaction was initiated by addition of 50 μL of tetramethyl benzidine chromogen (TMB single solution chromogen) and terminated after 15 min by addition of 50 μL of 1 N HCl. Absorbance at 450 nm was read using an automated microplate reader.

RAGE/S100B = target: T3, RAGE/S100B (Homo sapiens, UniProt Q15109); test: Solid phase binding assay, RAGE to S100b calgranulin; details: Table 2
T3 construct: purchased R&D Systems (Minneapolis, Minn.)
Description: as §1

Xa = test: Anti-Xa anticoagulant activity; format: biochemical
P-Selectin/PSGL = target: T4, P-Selectin/PSGL (Homo sapiens, UniProt P16109); test: U937 monocyte binding to P-selectin (cell binding assay); details: Table 2; U937 binding to P-selectin-Fc
T4 construct: purchased R&D Systems (Minneapolis, Minn.)
Description: (§2) Cell Binding Assays. The effect of SAGEs on binding of U937 monocytes to P-selectin or RAGE was studied in high-bind micro plates coated with 8 μg/ml protein A ([…]) in 0.2 M carbonate-bicarbonate buffer (pH 9.4). Plates were washed with phosphate buffered saline containing 1% BSA (PBS-BSA), and P-selectin-Fc or RAGE-Fc chimera (50 μL containing 1 μg) was added to each well and incubated for 2 h at room temperature or overnight at 4° C., respectively. Following incubation, wells were washed twice with PBS-BSA. […] As a negative control, 50 μL of 10 mM EDTA was added to select wells to prevent cell binding through sequestration of calcium. At the end of the incubation period, 50 μL of U937 cells (10^5 cells/well, calcein-labeled according to manufacturer's instructions) were added to each well and plates were incubated an additional 30 min at room temperature. The wells were then washed thrice with PBS, and bound cells were lysed by addition of 100 μL of Tris-TritonX-100 containing buffer. Fluorescence was measured on a microplate reader using excitation of 494 nm and emission of 517 nm.

human leukocyte elastase = target: T5, human leukocyte elastase (Homo sapiens, UniProt P08246); test: Human leukocyte elastase activity assay, chromogenic substrate; format: biochemical; details: Table 2
T5 sequence (P08246 30-267): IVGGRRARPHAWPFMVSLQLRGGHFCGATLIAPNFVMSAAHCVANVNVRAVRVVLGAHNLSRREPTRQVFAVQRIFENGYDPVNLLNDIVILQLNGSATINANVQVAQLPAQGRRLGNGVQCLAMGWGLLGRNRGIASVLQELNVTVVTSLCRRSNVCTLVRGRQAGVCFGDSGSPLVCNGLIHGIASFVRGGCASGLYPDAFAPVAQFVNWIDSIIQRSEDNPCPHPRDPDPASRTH
Source text: Enzymatic assays. […] Nat Biotech 26:669-675, 2008).

IIa = test: Anti-IIa anticoagulant activity; format: biochemical
RAGE/CML-BSA = target: T6, RAGE/CML-BSA (Homo sapiens, UniProt Q15109); test: Solid phase binding assay, RAGE to CML-BSA; details: Table 2
T6 construct: purchased R&D Systems (Minneapolis, Minn.)
Description: as §1

RAGE/Mac-1 = target: T7, RAGE/Mac-1 (Homo sapiens, UniProt Q15109); test: U937 monocyte binding to RAGE (cell binding assay); details: Table 2; U937 binding to RAGE-Fc
T7 construct: purchased R&D Systems (Minneapolis, Minn.)
Description: as §2

T6 sequence (Q15109 with tags, fused parts or gaps limits assumed): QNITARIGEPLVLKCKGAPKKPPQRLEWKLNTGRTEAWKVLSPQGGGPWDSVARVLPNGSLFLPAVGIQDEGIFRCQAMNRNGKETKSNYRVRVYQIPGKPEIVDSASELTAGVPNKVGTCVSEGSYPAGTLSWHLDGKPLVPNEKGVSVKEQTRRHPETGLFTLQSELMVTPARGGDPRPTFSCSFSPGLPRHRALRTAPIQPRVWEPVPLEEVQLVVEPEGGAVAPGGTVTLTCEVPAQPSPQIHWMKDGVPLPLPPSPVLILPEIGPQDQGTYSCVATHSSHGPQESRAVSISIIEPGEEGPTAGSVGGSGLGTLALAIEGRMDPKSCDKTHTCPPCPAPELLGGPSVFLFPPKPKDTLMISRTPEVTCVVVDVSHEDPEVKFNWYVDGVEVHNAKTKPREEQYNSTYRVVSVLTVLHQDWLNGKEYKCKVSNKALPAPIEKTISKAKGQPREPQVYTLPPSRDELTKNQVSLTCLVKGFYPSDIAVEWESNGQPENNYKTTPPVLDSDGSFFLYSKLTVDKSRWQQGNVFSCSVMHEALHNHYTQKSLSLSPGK
T7 sequence (Q15109 with tags, fused parts or gaps limits assumed): as above
T2 sequence (Q15109 with tags, fused parts or gaps limits assumed): as above
T3 sequence (Q15109 with tags, fused parts or gaps limits assumed): as above
T4 sequence (P16109 with tags, fused parts or gaps limits assumed): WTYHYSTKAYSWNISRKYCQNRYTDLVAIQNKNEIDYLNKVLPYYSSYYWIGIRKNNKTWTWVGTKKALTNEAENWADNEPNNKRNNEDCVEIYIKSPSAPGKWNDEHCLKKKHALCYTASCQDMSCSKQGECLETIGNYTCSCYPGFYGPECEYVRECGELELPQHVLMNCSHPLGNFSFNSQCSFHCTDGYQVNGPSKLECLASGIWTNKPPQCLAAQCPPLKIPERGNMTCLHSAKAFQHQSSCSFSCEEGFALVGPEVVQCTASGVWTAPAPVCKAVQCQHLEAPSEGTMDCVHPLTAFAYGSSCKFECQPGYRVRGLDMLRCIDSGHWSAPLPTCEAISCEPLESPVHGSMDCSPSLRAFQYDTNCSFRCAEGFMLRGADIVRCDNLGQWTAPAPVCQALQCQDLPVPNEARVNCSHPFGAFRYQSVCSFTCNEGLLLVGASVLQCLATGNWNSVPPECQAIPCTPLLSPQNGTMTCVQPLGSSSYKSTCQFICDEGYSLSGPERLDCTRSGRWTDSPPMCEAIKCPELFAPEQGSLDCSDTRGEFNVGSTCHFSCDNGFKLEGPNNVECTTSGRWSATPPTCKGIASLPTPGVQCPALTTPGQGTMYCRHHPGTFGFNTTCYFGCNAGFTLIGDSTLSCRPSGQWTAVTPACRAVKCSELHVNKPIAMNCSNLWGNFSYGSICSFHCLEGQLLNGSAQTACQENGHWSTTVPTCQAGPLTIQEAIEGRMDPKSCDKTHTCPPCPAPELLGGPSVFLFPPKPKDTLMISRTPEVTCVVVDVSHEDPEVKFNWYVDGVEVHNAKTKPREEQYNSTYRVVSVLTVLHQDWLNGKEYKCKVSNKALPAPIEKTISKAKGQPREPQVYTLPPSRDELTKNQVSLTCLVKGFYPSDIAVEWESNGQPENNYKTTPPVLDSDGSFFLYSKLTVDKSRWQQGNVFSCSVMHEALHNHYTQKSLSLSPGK

Which results are given for Heparin [reference compound]?
Hageman Factor [1]: 0.4 µg/mL; RAGE/HMGB1 (RAGE/HMGB1): 0.04 µg/mL; RAGE/S100B (RAGE/S100B): 1.29 µg/mL; anti-Xa anticoagulant activity (Xa): 150 U/mg; P-Selectin/PSGL (P-Selectin/PSGL): 0.3 µg/mL; Leukocyte Elastase (human leukocyte elastase): 0.21 µg/mL; anti-IIa anticoagulant activity (IIa): 150 U/mg; RAGE/CML-BSA (RAGE/CML-BSA): 0.39 µg/mL; RAGE/Mac-1 (RAGE/Mac-1): 0.11 µg/mL
